Measured values taken from publication PMC12320245 (International Journal of Biological Sciences, 2025).

Test system: astrocytes
Assay: Lysosomal pH detection (DND-189 fluorescence)
Assay type: cell-based

O=S(=O)(NCCNC/C=C/c1ccc(Br)cc1)c1cccc2cnccc12 [H-89]
lysosomal pH (DND-189 fluorescence), co-treatment with PKA inhibitor (BafA1 + AMX + H-89): abolished the lysosomal acidification effect of AMX

CO/C1=C\C(C)=C\[C@@H](C)[C@@H](O)[C@@H](C)C/C(C)=C/C=C/[C@H](OC)[C@@H]([C@@H](C)[C@@H](O)[C@H](C)[C@@]2(O)C[C@@H](O)[C@H](C)[C@@H](C(C)C)O2)OC1=O [bafilomycin A1]
lysosomal pH (DND-189 fluorescence) (100 nM BafA1, 1-hour exposure): markedly alkalinized lysosomes

Nc1ncnc2c1ncn2[C@@H]1O[C@@H]2COP(=O)(O)O[C@H]2[C@H]1O [cAMP, cyclic adenosine monophosphate]
lysosomal pH (DND-189 fluorescence), reversal of BafA1 effect (300 μM cAMP with 100 nM BafA1): effectively reversed BafA1-induced alkalization
